Data reported in the supplement of paper PMC8882468.

Experiments:
HCI-019 [1] = organoid from a triple-negative breast cancer xenograft; assay: CTG-3D luminescence at 96 h relative to day-0 seeding control (ratio to day 0); higher = more growth / less cytotoxicity; PDxO 3D drug screen, 96 h, CTG-3D normalised to day-0 seeding control.
MDA-MB-231 = assay: CTG-3D luminescence at 96 h relative to day-0 seeding control (ratio to day 0); higher = more growth / less cytotoxicity; PDxO 3D drug screen (set 2), 96 h, CTG-3D normalised to day-0 seeding control.
HCI-023 = organoid from a triple-negative breast cancer xenograft; assay: as above
HCI-019 [2] = assay: as above

CC(C)n1nc(-c2ccc3oc(N)nc3c2)c2c(N)ncnc21 [sapanisertib]
CTG-3D luminescence at 96 h
Conditions | 12.5 pM | 0.00025 µM | 0.005 µM | 0.1 µM | 1 µM | 10 µM | 100 µM | 625 fM
HCI-019 [1], days in culture: 110 | 1.88 | 1.46 | 1.02 | 0.781 | 0.409 | 0.493 | 0.0143 | 2.26
HCI-019 [1], days in culture: 131 | 2.52 | 3.19 | 3.17 | 1.21 | 0.676 | 0.681 | 0.0207 | 3.58
HCI-019 [1], days in culture: 152 | 4.18 | 3.66 | 2.71 | 0.969 | 0.811 | 0.616 | 0.0357 | 2.12
HCI-019 [2], days in culture: 173 | 2.61 | 0.967 | 1.48 | 1.01 | 0.438 | 0.352 | – | –
HCI-019 [2], days in culture: 194 | 1.66 | 1.19 | 1.63 | 0.737 | 0.441 | – | – | –
HCI-019 [2], days in culture: 215 | 1.78 | 1.21 | 1.14 | 0.664 | 0.531 | – | – | –
HCI-023, days in culture: 223 | 1.99 | 3.08 | 1.41 | 0.945 | 0.479 | 0.703 | 0.169 | 2.08
HCI-023, days in culture: 238 | 1.38 | 1.49 | 1.44 | 0.777 | 0.723 | 0.606 | 0.2 | 1.64
HCI-023, days in culture: 252 | 2.43 | 1.86 | 1.79 | 1.19 | 0.654 | 0.535 | 0.388 | 1.93

MDA-MB-231
Conditions | CTG-3D luminescence at 96 h
12.5 pM | 5.39
0.00025 µM | 5.2
0.005 µM | 4.98
1 µM | 2.67
10 µM | 1.74
100 µM | 0.758
625 fM | 5.28
